# Laboratory results reported in patent US8648211B2, “Surface-modifying silicone elastomers” (priority 2009, dated 2014).
# Columns and labels:
# Format in all cases: physicochemical
# [1] = Wetting of glass by aqueous surfactant solutions (drop shape analyzer); conditions: 0.1 wt % (0.2 wt %, 0.5 wt %) in phosphate buffer pH=7
# Description: (§1) ^1H NMR and ^13C NMR spectra were obtained on Bruker AC-200 (200-MHz) spectrometer. The molecular weight and mass spectra were determined on a Micromass Global Q-TOF Ultima (MALDI/CapLC-ESI Quadrupole Time of Flight) Mass Spectrometer. ATR-FTIR spectra were obtained on Bio-Rad FTS-40 (Fourier transform IR) spectrometer with an ATR accessory, on which a 45° rectangle ZnSe crystal was used. Surface water contact angle and surface tension were recorded using a Krüss V1.50 drop shape analyzer.
# (§2) The ability of solutions of APS and related compounds to wet substrates was established using a drop shape analyzer. The contact angles and total spreading were established immediately after placing an aqueous drop volume ˜0.02 ml onto the surface of polystyrene (a new Petri dish) or a cleaned glass slide.
# (§3) The ability of APS to disperse an aqueous phosphate buffer solution (pH=7) was determined on both hydrophobic (polystyrene) and hydrophilic (glass) surfaces. […] By contrast, when 1.5 wt % APS was included in the buffer, the maximum wetting diameter area on polystyrene was close to 6.16 cm^2, close to 200 times the area of the original buffer solution. Thus, APS has characteristics of typical superwetters.
# [2] = Wetting of polystyrene by aqueous surfactant solutions (drop shape analyzer); conditions: for surface area of drop versus buffer control on polystyrene: 0.1 wt % (0.2 wt %, 0.5 wt %) in phosphate buffer pH=7
# Description: as §1, §2, §3
# [3] = Stability of aqueous surfactant solutions (decomposition in water)
# From the text: The durability and environmental stability of modified surfaces are factors to consider for their use in real applications. While silicones are normally very stable to degradation, provided that the conditions remain near neutrality, branched trisiloxanes are notoriously unstable to hydrolysis.^27 Superwetters are usually added to the agents to be dispersed and then used immediately in pH 7 buffers. […] However, it was possible that tethering the superwetter to a surface would change the hydrolytic susceptibility.
# [4] = Hydrolytic stability of APS-modified PDMS soaked in pH 4 and pH 10 solutions
# Description: (§4) The ability of water to wet out a variety of surface modified silicones was also established using the drop shape analyzer. […] Prior to each test, the coupons were thoroughly washed by DI water (FIG. 8).
# The hydrolytic stability of APS-modified PDMS elastomers was tested by soaking for extended periods of time in aqueous pH=4 and pH=10 solutions. […] However, while spreading is impeded after the surface is exposed to such conditions, the water contact angle can still decrease to 20° over 2-3 minutes. The tethered APS is thus more resistant to hydrolytic degradation than APS in solution. Further degradation while soaking the tethered APS in an aqueous solution occurred in the second week, after which no superspreading effect was observed: contact angles decreased only to about 60° over 1-2 minutes.
# [5] = Water wetting (contact angle, spreading) on surface-modified PDMS
# Description: as §1, §4
# The magnitude of spreading of APS in water was examined, and water on APS tethered to silicone, but not yet considered is the rate of spreading: rapid rates of spreading are also emblematic of superwetters. The water spreading rate on APS-modified PDMS was calculated according to a literature method^26 where: spreading rate=dD/dt (1) and, spreading area=dΔS/dt, (2) wherein D is the diameter of water droplet, S is the surface area covered by water and t is the spreading time. […] That is, replacing a terminal alcohol, acetate, etc., on the PEG block with an allyl group leads only to subtle changes in wetting properties. The situation is quite different when the superwetter is tethered.
# [6] = Shelf-life of APS-modified PDMS stored in air, tested monthly over 5 months
# From the text: as §4
# The shelf-life of the tethered APS was also established by testing spreading behavior monthly over a period of 5 months: samples of APS-modified surfaces were stored without any special protection on the laboratory bench. Subtle changes were observed over time. While the final contact angle (approaching zero) of water droplets was still achieved after 5 months, spreading rates changed appreciably. Rather than two distinct spreading rates, the droplet would spread to a specific radius, stop for several (typically up to 10) seconds and then spread to a new larger radius. This start-stop-start-stop process was repeated up to about 8 times at which point the approximately 0° contact angle was achieved.
# [7] = 0.02 ml water on APS-modified silicone elastomer
# [8] = PDMS 1 wt % DC1107 grafted with 14.7 wt % APS, 0.02 ml water
substance,measurement,setting,value
bis-heptamethyltrisiloxanyl-PEG [SiPS],surface area of drop versus buffer control on glass,[1],only marginally larger surface areas
same,surface area of drop versus buffer control on polystyrene,[2],only marginally larger surface areas
Allyl PEO Siloxane [APS],area of one drop after spreading,"[2]; 1 wt % aqueous solution, from 0.03 cm^2, in 5 seconds, surface not stated, data not shown",4.91 cm^2
same,maximum wetting diameter area on polystyrene,"[2]; 1.5 wt % in aqueous phosphate buffer pH=7, 5 μl buffer control 0.031 cm^2",~6.16 cm^2
same,wetting area relative to the area of the original buffer solution,"[2]; 1.5 wt % in phosphate buffer pH=7, polystyrene",~200 times
same,spreading of aqueous solutions compared with commercial superwetter L77,"[2]; degree and velocity of spreading, surface not stated",approximately the same degree and at a similar velocity to the commercial superwetter L77
same,stability of aqueous solution,[3],decomposed in water over a few days to a week
same,"water contact angle after soaking, second week","[4]; APS-modified PDMS soaked in aqueous solution, reached over 1-2 minutes, no superspreading",about 60 °
same,"water contact angle after soaking, first week","[4]; APS-modified PDMS soaked in pH=4 and pH=10 solutions, reached over 2-3 minutes",20 °
same,"spreading rate of water droplet, first 3 seconds","[5]; 0.02 ml water on APS-modified PDMS (1 wt % DC1107, 14.7 wt % APS)",~1 mm s^−1
same,final area covered by water relative to original droplet size,[5]; [7],about 15 times
same,water contact angle within about 1 minute,[5]; [7],below 10 °
same,contact angle at the edge of the spread droplet when the drop ceases to migrate,[5]; APS-modified PDMS,~0 °
same,increase of water spreading area during first 3 seconds,[5]; [8],8 times
same,"spreading rate of water droplet, subsequent 30 seconds",[5]; [8],approximately 0.1 mm s^−1
same,water contact angle on APS-grafted silicone surfaces within one minute,"[5]; distilled water, in some cases, depends on surface coverage",nearly zero
same,Contact Angle (°),[5]; water droplets 0.02 ml on modified PDMS prepared with 1% DC1107,0 °
same,Wetting Diameter (mm),"[5]; water droplets 0.02 ml, initial radius ~1.0 mm, final diameter after 1 min, modified PDMS, 1% DC1107",8 mm
same,final water contact angle after 5 months,[6]; APS-modified surface stored on the laboratory bench,approximately 0 °
same,time surface remained superhydrophilic,"[6]; APS-modified surface, storage in air",at least 5 months
Diallyl-Terminated PEO [DAP],surface area of drop versus buffer control on glass,[1],only marginally larger surface areas
same,surface area of drop versus buffer control on polystyrene,[2],only marginally larger surface areas
same,superwetting properties of compound or compound-modified surfaces,[5]; in aqueous solution and grafted to PDMS,do not have superwetting properties
same,lowest contact angle of grafted PDMS,"[5]; pure DAP grafted to PDMS at 10, 20, 50% in THF",80 °
